Test results from patent US4298610A, “Ester derivatives of quinolopyran-4-one-2-carboxylic acids and antiallergic antasthmatics” (priority 1978, dated 1981).

Assays:
[1] = tested on: passive cutaneous anaphylaxis; assay: passive cutaneous anaphylaxis test (P.C.A.) on rats, oral administration; format: in vivo, rat (SLC Wister); conditions: 0.5 h, rat, 30 mg/kg, antigen 30 minutes after administration, read-out: Percent inhibition (%)
Experimental: Various 5-hydroxy-quinolopyran-4-one-2-carboxylic acid esters in terms of the R group represented by the general formula [I] were prepared. […] In order to estimate the efficacy of each compound as an anti-allergic antasthmatic, the efficacy was evaluated according to a passive cutaneous anaphylaxis test (P.C.A.) on rats.
To SLC Wister rats were administered intracutaneously egg white albumin recrystallized 5 times and Bodetallapertussis Vaccine, and serum was collected after 13 days from the rats. […] A physiological salt solution in which egg white albumin and a dye (Evans' blue) were dissolved was administered intravenously, 30 minutes after the oral administration, to the rats; and 30 minutes thereafter the back skins of the rats were peeled off. The dye that transuded from the peeled skin was extracted with Na2 SO4 and acetone, and the quantities of the dye were measured by colorimetry at 620 m μ.

[2] = tested on: passive cutaneous anaphylaxis; assay: duration of action in the passive cutaneous anaphylaxis test of the rats, interval between oral administration and antigen varied; format: in vivo, rat (SLC Wister); conditions: 30 mg/kg
Experimental: To SLC Wister rats were administered intracutaneously egg white albumin recrystallized 5 times and Bodetallapertussis Vaccine, and serum was collected after 13 days from the rats. […] The serum was diluted 128 times and it was then administered intracutaneously to the back of the rats. After 48 hours, the compounds of the present invention in the quantities shown in Table 1 which had been suspended in 1% tragacanth solution were administered orally to the rats. A physiological salt solution in which egg white albumin and a dye (Evans' blue) were dissolved was administered intravenously, 30 minutes after the oral administration, to the rats; and 30 minutes thereafter the back skins of the rats were peeled off. The dye that transuded from the peeled skin was extracted with Na2 SO4 and acetone, and the quantities of the dye were measured by colorimetry at 620 m μ.
In the above-described passive cutaneous anaphylaxis test of the rats, the intervals between the oral administration of the present compounds and the administration of egg white albumin and the dye were variously changed to observe the changes in the effect of the compounds depending upon the intervals.
As a representative compound of the present invention, 2-methyl-1-pentyl ester of 7,8-dimethyl-5-hydroxy-quinolo[4,3-b]pyran-4-one-2-carboxylic acid was used. The percent inhibition is shown in Table 2 when the compound was orally administered in a ratio of 30 mg/kg.

[3] = cited from earlier work
allergic asthma = conditions: Cox et al; cited from earlier work

In the case of `CCCC(C)COC(=O)c1cc(=O)c2c(O)nc3c(C)c(C)ccc3c2o1` (centres unmarked) [2-methyl-1-pentyl ester of 7,8-dimethyl-5-hydroxy-quinolo[4,3-b]pyran-4-one-2-carboxylic acid], the inhibition in vivo at 30 mg/kg [1] is reported as 97.9%, the “Percent inhibition (%)” value ([2]; period of time 10 min.) is reported as 96.5% and the “Percent inhibition (%)” value ([2]; period of time 20 min.) is reported as 98.5%. The “Percent inhibition (%)” value ([2]; period of time 30 min.) was 95.0%, the “Percent inhibition (%)” value ([2]; period of time 40 min.) was 93.0% and the “Percent inhibition (%)” value ([2]; period of time 1 hr.) was 92.5%. For the same compound, the “Percent inhibition (%)” value ([2]; period of time 2 hrs.) was 72.5%, the “Percent inhibition (%)” value ([2]; period of time 3 hrs.) was 61.5% and the “Percent inhibition (%)” value ([2]; period of time 4 hrs.) was 53.0%.
For `O=C(O)c1cc(=O)c2c(OCC(O)COc3cccc4oc(C(=O)O)cc(=O)c34)cccc2o1` [disodium cromoglycate], the “absorption via oral administration” value [3] is given as “cannot be absorbed via oral administration” and the “effectiveness for allergic asthma” value (allergic asthma) is given as “effective for allergic asthma”.
With `CCCCCCCCCCOC(=O)c1cc(=O)c2c(O)nc3c(C)c(C)ccc3c2o1` [n-decyl ester of 7,8-dimethyl-5-hydroxy-quinolo[4,3-b]pyran-4-one-2-carboxylic acid, reference compound] the inhibition in vivo at 30 mg/kg [1] was 4.7%.
For `CCCCCCCCCCCCOC(=O)c1cc(=O)c2c(O)nc3c(C)c(C)ccc3c2o1` [n-dodecyl ester of 7,8-dimethyl-5-hydroxy-quinolo[4,3-b]pyran-4-one-2-carboxylic acid, reference compound], the inhibition in vivo at 30 mg/kg [1] was -26.2%.
`CCCCCCCOC(=O)c1cc(=O)c2c(O)nc3c(C)c(C)ccc3c2o1` [n-heptyl ester of 7,8-dimethyl-5-hydroxy-quinolo[4,3-b]pyran-4-one-2-carboxylic acid, reference compound] showed an inhibition in vivo at 30 mg/kg [1] of 36.3%.
Compound `CCCCCCOC(=O)c1cc(=O)c2c(O)nc3c(C)c(C)ccc3c2o1` [n-hexyl ester of 7,8-dimethyl-5-hydroxy-quinolo[4,3-b]pyran-4-one-2-carboxylic acid] has an inhibition in vivo at 30 mg/kg [1] of 72%.
In the case of `CCCCCCCCOC(=O)c1cc(=O)c2c(O)nc3c(C)c(C)ccc3c2o1` [n-octyl ester of 7,8-dimethyl-5-hydroxy-quinolo[4,3-b]pyran-4-one-2-carboxylic acid, reference compound], the inhibition in vivo at 30 mg/kg [1] is reported as 39.3%.
`CCCCCOC(=O)c1cc(=O)c2c(O)nc3c(C)c(C)ccc3c2o1` [n-pentyl ester of 7,8-dimethyl-5-hydroxy-quinolo[4,3-b]pyran-4-one-2-carboxylic acid, reference compound] showed an inhibition in vivo at 30 mg/kg [1] of 26.5%.
